US20220296535A1, “Antibacterial Dosage Regime Using Cannabinoids” (Botanix Pharmaceuticals Limited, priority 2019, published 2022)
“And” between values parts separate entries of the source, which are not always exact repeats. Equal values may be shown once.

What was measured:
[1] = Protein binding inferred from loss of activity in 50% human serum; format: in vitro ADME; details: assuming 3% free responsible for activity
Procedure: The compounds were serially diluted in mixture of 50% of human serum (Sigma; Cat. No. H3667-100ML) along with 50% Cation-adjusted Mueller Hinton Broth (CaMHB; BD, Cat. No. 212322) two-fold across the wells of polystyrene (PS) 96-well plates (Corning; Cat. No. 3370), plated in duplicate. All plates had flat bottom wells and were covered with low-evaporation lids.
All control antibiotics gave inhibitory values within the expected ranges.

[2] = system: Bacillus megaterium ATCC 13632; assay: Expanded panel MIC micro-broth dilution; format: cell-based; details: CaMHB
Procedure: (§1) The collaborator supplied sample as dry material. Angela Kavanagh prepared a stock solution at 10 mg/mL in neat DMSO. The highest concentration tested in the assay was 64 μg/mL for bacteria and 128 μg/mL for fungi. 2% DMSO was the final concentration using 1/20 dilution to achieve these concentrations.
(§2) The compound was serially diluted in Cation-adjusted Mueller Hinton Broth (CaMHB; BD, Cat. No. 212322) two-fold across the wells of polystyrene (PS) 96-well plates (Corning; Cat. No. 3370), plated in duplicate. All plates had flat bottom wells and were covered with low-evaporation lids.
(§3) Bacteria were cultured in CaMHB at 37° C. overnight, then diluted 40-fold and incubated at 37° C. for a further 2-3 h. The resultant mid-log phase cultures were diluted in CaMHB and added to each well of the compound-containing 96-well plates to give a final cell density of 5×10^5 CFU/mL, and a final compound concentration range of 0.03-64 μg/mL. The plates were covered and incubated at 37° C. for 20 h.
(§4) Inhibition of bacterial growth was determined visually, where the MIC was recorded as the lowest compound concentration with no visible growth.

[3] = system: Staphylococcus aureus ATCC 700699, NRS 1; assay: Expanded panel MIC micro-broth dilution; format: cell-based; details: CaMHB, read-out: Cannabidiol MIC (Batch 1)
Procedure: as §1, §2, §3, §4

[4] = system: Staphylococcus epidermidis NRS 60; assay: Expanded panel MIC micro-broth dilution; format: cell-based; details: CaMHB
Procedure: as §1, §2, §3, §4

[5] = system: Staphylococcus aureus ATCC 33591; assay: Expanded panel MIC micro-broth dilution; format: cell-based; details: CaMHB
Procedure: as §1, §2, §3, §4

[6] = system: Streptococcus pneumoniae ATCC 700677; assay: Expanded panel MIC micro-broth dilution; format: cell-based; details: ATCC700677, CaMHB, read-out: Cannabidiol MIC (Batch 1)
Procedure: as §1, §2, §3, §4

[7] = system: Bacillus cereus ATCC 11778; assay: Expanded panel MIC micro-broth dilution; format: cell-based; details: CaMHB
Procedure: as §1, §2, §3, §4

[8] = system: Streptococcus pneumoniae ATCC 33400; assay: Expanded panel MIC micro-broth dilution; format: cell-based; details: CaMHB
Procedure: as §1, §2, §3, §4

[9] = system: Staphylococcus aureus ATCC 29213; assay: Expanded panel MIC micro-broth dilution; format: cell-based; details: CaMHB
Procedure: as §1, §2, §3, §4

[10] = system: Bacillus subtilis ATCC 6633; assay: Expanded panel MIC micro-broth dilution; format: cell-based; details: CaMHB
Procedure: as §1, §2, §3, §4

[11] = system: Staphylococcus epidermidis ATCC 14990; assay: Expanded panel MIC micro-broth dilution; format: cell-based; details: CaMHB
Procedure: as §1, §2, §3, §4

[12] = system: Staphylococcus aureus NARSA, VRS1; assay: Expanded panel MIC micro-broth dilution; format: cell-based; details: CaMHB
Procedure: as §1, §2, §3, §4

[13] = system: Staphylococcus warneri Clinical isolate; assay: Expanded panel MIC micro-broth dilution; format: cell-based; details: CaMHB
Procedure: as §1, §2, §3, §4

[14] = system: Staphylococcus capitis ATCC 27840; assay: Expanded panel MIC micro-broth dilution; format: cell-based; details: CaMHB
Procedure: as §1, §2, §3, §4

[15] = system: Enterococcus faecalis ATCC 29212; assay: Expanded panel MIC micro-broth dilution; format: cell-based; details: ATCC29212, CaMHB, read-out: Cannabidiol MIC (Batch 1)
Procedure: as §1, §2, §3, §4

[16] = system: Staphylococcus aureus ATCC 25923; assay: Expanded panel MIC micro-broth dilution; format: cell-based; details: CaMHB
Procedure: as §1, §2, §3, §4

[17] = system: Streptococcus pyogenes ATCC 12344; assay: Expanded panel MIC micro-broth dilution; format: cell-based; details: ATCC12344, CaMHB, read-out: Cannabidiol MIC (Batch 1)
Procedure: as §1, §2, §3, §4

[18] = system: Kocuria rosea ATCC 31251; assay: Expanded panel MIC micro-broth dilution; format: cell-based; details: CaMHB
Procedure: as §1, §2, §3, §4

[19] = system: Staphylococcus epidermidis ATCC 12228; assay: Expanded panel MIC micro-broth dilution; format: cell-based; details: CaMHB
Procedure: as §1, §2, §3, §4

[20] = system: Staphylococcus aureus ATCC 43300; assay: Expanded panel MIC micro-broth dilution; format: cell-based; details: ATCC43300, CaMHB, read-out: Cannabidiol MIC (Batch 1)
Procedure: as §1, §2, §3, §4

C=C(C)C1CCC(C)=CC1c1c(O)cc(CCCCC)cc1O (stereo not shown) [Cannabidiol, 2-[3-methyl-6-(1-methylethenyl)-2-cyclohexen-1-yl]-5-pentyl-1,3-benzenediol]
4 to 8 µg/mL: MIC ([4]; Staphylococcus epidermidis, NRS60, Staphylococcus epidermidis NRS 60, read-out: Cannabidiol MIC (Batch 1))
1 µg/mL: MIC ([2]; Priestia megaterium, ATCC13632, Bacillus megaterium ATCC 13632, read-out: Cannabidiol MIC (Batch 1)) | MIC ([5]; Staphylococcus aureus, ATCC33591, Staphylococcus aureus ATCC 33591, read-out: Cannabidiol MIC (Batch 1)) | MIC ([7]; Bacillus cereus, ATCC11778, Bacillus cereus ATCC 11778, read-out: Cannabidiol MIC (Batch 1)) | MIC ([8]; Streptococcus pneumoniae, ATCC33400, Streptococcus pneumoniae ATCC 33400, read-out: Cannabidiol MIC (Batch 1)) | MIC ([9]; Staphylococcus aureus, ATCC29213, Staphylococcus aureus ATCC 29213, read-out: Cannabidiol MIC (Batch 1)) | MIC ([10]; Bacillus subtilis, ATCC6633, Bacillus subtilis ATCC 6633, read-out: Cannabidiol MIC (Batch 1)) | MIC ([11]; Staphylococcus epidermidis, ATCC14990, Staphylococcus epidermidis ATCC 14990, read-out: Cannabidiol MIC (Batch 1)) | MIC ([12]; Staphylococcus aureus, read-out: Cannabidiol MIC (Batch 1)) | MIC ([14]; Staphylococcus capitis, ATCC27840, Staphylococcus capitis ATCC 27840, read-out: Cannabidiol MIC (Batch 1)) | MIC ([16]; Staphylococcus aureus, ATCC25923, Staphylococcus aureus ATCC 25923, read-out: Cannabidiol MIC (Batch 1)) | MIC [17] | MIC ([18]; Kocuria rosea, ATCC31251, Kocuria rosea ATCC 31251, read-out: Cannabidiol MIC (Batch 1)) | MIC ([19]; Staphylococcus epidermidis, ATCC12228, Staphylococcus epidermidis ATCC 12228, read-out: Cannabidiol MIC (Batch 1)) | MIC [20]
4 µg/mL: MIC [3] | MIC [6] | Cannabidiol MIC (Batch 1) [13]
< 0.03: fraction unbound [1]
2 µg/mL: Cannabidiol MIC (Batch 1) ([2]; Bacillus megaterium ATCC 13632) | Cannabidiol MIC (Batch 1) ([5]; Staphylococcus aureus ATCC 33591) | Cannabidiol MIC (Batch 1) ([7]; Bacillus cereus ATCC 11778) | Cannabidiol MIC (Batch 1) ([8]; Streptococcus pneumoniae ATCC 33400) | Cannabidiol MIC (Batch 1) ([9]; Staphylococcus aureus ATCC 29213) | Cannabidiol MIC (Batch 1) ([10]; Bacillus subtilis ATCC 6633) | Cannabidiol MIC (Batch 1) ([11]; Staphylococcus epidermidis ATCC 14990) | Cannabidiol MIC (Batch 1) [12] | MIC ([13]; Staphylococcus warneri, read-out: Cannabidiol MIC (Batch 1)) | Cannabidiol MIC (Batch 1) ([14]; Staphylococcus capitis ATCC 27840) | MIC [15] | Cannabidiol MIC (Batch 1) ([16]; Staphylococcus aureus ATCC 25923) | Cannabidiol MIC (Batch 1) ([18]; Kocuria rosea ATCC 31251) | Cannabidiol MIC (Batch 1) ([19]; Staphylococcus epidermidis ATCC 12228)
4 µg/mL and 8 µg/mL: Cannabidiol MIC (Batch 1) ([4]; Staphylococcus epidermidis NRS 60)
